Article PMC6149898, “GPCR Modulation of Thieno[2,3-b]pyridine Anti-Proliferative Agents” (Molecules : A Journal of Synthetic Chemistry and Natural …, 2017)

Assays:
[1] = tested on: ME:M14; set-up: method as in earlier work; conditions: NCI-60 panel; ref [4],[5],[6],[7]; cited from earlier work
[2] = target: CNR2 (Homo sapiens, UniProt P34972); experiment: gpcrMAX PathHunter beta-arrestin
[3] = target: F2RL3 (Homo sapiens, UniProt Q96RI0); experiment: gpcrMAX PathHunter beta-arrestin
[4] = target: EDNRA (Homo sapiens, UniProt P25101); experiment: gpcrMAX PathHunter beta-arrestin
Chain of EDNRA (P25101 21-427): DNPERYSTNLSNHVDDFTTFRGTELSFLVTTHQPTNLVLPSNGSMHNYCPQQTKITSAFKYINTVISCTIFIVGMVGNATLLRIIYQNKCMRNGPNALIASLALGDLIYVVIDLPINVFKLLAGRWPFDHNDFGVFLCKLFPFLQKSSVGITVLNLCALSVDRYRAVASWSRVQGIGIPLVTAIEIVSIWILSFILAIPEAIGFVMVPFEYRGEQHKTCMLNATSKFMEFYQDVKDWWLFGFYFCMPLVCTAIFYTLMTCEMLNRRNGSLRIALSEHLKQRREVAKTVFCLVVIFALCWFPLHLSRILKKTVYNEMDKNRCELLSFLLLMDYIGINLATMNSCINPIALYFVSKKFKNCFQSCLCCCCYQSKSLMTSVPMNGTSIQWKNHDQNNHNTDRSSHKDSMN

[5] = target: EDG6 (Homo sapiens, UniProt O95977); experiment: gpcrMAX PathHunter beta-arrestin
[6] = target: FFAR1 (Homo sapiens, UniProt O14842); experiment: gpcrMAX PathHunter beta-arrestin
[7] = tested on: RE:UO-31; set-up: method as in earlier work; conditions: NCI-60 panel; ref [4],[5],[6],[7]; cited from earlier work
[8] = target: NTSR1 (Homo sapiens, UniProt P30989); experiment: gpcrMAX PathHunter beta-arrestin
Chain of NTSR1 (P30989 whole entry): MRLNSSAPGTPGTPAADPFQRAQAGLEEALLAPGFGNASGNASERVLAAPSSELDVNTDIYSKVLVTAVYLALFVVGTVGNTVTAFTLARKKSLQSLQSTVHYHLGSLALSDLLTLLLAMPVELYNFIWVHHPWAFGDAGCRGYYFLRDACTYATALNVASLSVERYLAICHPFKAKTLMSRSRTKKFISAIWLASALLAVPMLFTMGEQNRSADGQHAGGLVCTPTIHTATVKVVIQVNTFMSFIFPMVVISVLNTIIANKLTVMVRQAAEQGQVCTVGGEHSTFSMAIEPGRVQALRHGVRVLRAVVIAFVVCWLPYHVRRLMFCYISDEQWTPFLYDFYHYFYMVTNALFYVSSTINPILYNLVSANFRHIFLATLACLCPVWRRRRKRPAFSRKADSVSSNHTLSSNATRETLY

[9] = target: VIPR1 (Homo sapiens, UniProt P32241); experiment: gpcrMAX PathHunter beta-arrestin
Chain of VIPR1 (P32241 31-457): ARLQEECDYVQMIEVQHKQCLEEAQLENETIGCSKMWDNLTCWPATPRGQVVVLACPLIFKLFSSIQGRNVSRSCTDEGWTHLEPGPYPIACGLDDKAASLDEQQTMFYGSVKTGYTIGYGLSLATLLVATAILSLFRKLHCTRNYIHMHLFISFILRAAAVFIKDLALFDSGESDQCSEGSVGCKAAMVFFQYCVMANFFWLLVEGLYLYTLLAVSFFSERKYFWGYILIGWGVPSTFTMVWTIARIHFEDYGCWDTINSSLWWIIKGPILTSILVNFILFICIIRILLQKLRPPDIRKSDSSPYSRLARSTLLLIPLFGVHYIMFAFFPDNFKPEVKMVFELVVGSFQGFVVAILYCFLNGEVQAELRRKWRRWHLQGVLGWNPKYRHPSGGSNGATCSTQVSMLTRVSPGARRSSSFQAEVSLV

[10] = target: MTNR1A (Homo sapiens, UniProt P48039); experiment: gpcrMAX PathHunter beta-arrestin
Chain of MTNR1A (P48039 whole entry): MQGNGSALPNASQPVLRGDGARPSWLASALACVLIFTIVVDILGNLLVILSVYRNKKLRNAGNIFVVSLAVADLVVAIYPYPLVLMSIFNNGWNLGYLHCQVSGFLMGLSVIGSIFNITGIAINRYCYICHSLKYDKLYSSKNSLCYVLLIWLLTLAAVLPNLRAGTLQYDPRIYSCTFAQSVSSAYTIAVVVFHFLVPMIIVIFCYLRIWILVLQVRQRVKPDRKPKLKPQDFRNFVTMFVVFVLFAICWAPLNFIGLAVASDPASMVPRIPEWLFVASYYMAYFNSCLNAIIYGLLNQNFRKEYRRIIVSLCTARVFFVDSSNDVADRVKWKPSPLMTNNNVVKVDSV

[11] = target: HRH1 (Homo sapiens, UniProt P35367); experiment: gpcrMAX PathHunter beta-arrestin
[12] = target: CCR10 (Homo sapiens, UniProt P46092); experiment: gpcrMAX PathHunter beta-arrestin
Chain of CCR10 (P46092 whole entry): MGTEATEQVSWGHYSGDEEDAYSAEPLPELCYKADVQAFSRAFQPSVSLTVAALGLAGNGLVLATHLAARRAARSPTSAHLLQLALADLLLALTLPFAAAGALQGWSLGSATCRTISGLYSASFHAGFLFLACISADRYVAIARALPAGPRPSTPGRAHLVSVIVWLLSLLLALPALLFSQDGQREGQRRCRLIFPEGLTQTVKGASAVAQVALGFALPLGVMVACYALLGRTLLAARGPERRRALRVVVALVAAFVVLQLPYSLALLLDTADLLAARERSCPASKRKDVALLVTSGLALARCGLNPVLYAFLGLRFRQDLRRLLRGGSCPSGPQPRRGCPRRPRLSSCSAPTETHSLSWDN

[13] = target: CCR2 (Homo sapiens, UniProt P41597); experiment: gpcrMAX PathHunter beta-arrestin
[14] = target: HTR1F (Homo sapiens, UniProt P30939); experiment: gpcrMAX PathHunter beta-arrestin
Chain of HTR1F (P30939 whole entry): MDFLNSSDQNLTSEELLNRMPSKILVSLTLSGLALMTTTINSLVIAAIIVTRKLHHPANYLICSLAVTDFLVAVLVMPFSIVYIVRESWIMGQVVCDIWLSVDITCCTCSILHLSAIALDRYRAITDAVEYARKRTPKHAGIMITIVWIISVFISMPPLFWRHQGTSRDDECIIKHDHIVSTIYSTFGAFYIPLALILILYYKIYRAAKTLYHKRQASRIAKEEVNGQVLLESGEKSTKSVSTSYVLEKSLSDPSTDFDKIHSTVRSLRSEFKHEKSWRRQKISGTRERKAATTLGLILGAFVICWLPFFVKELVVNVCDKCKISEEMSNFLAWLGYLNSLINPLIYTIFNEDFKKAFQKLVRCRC

[15] = tested on: OV:OVCAR-8; set-up: method as in earlier work; conditions: NCI-60 panel; ref [4],[5],[6],[7]; cited from earlier work
[16] = target: CCR1 (Homo sapiens, UniProt P32246); experiment: gpcrMAX PathHunter beta-arrestin
Chain of CCR1 (P32246 whole entry): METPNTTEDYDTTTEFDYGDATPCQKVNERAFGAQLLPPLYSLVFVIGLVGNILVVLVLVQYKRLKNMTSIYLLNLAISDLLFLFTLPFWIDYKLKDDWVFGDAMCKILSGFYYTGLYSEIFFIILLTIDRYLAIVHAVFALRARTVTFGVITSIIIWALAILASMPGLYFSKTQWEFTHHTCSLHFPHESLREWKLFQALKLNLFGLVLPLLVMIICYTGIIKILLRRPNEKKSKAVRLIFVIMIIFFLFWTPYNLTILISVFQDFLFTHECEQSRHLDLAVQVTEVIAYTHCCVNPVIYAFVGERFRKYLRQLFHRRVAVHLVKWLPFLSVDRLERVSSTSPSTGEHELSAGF

[17] = tested on: RE:RXF 393; set-up: method as in earlier work; conditions: NCI-60 panel; ref [4],[5],[6],[7]; cited from earlier work
[18] = target: P2RY1 (Homo sapiens, UniProt P47900); experiment: gpcrMAX PathHunter beta-arrestin
[19] = tested on: RE:ACHN; set-up: method as in earlier work; conditions: NCI-60 panel; ref [4],[5],[6],[7]; cited from earlier work
[20] = target: BRS3 (Homo sapiens, UniProt P32247); experiment: gpcrMAX PathHunter beta-arrestin
[21] = target: MC5R (Homo sapiens, UniProt P33032); experiment: gpcrMAX PathHunter beta-arrestin
Chain of MC5R (P33032 whole entry): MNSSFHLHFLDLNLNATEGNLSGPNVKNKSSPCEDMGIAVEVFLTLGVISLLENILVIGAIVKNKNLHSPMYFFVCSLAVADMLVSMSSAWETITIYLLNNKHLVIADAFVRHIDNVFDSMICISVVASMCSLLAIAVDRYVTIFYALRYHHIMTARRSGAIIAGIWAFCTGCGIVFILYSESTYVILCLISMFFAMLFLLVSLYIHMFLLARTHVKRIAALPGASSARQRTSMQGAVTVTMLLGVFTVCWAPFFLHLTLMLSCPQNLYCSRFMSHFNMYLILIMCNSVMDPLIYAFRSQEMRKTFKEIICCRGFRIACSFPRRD

[22] = target: CALCRL-RAMP1 (Homo sapiens, UniProt O60894+Q16602); experiment: gpcrMAX PathHunter beta-arrestin
[23] = target: NMU1R (Homo sapiens, UniProt Q9HB89); experiment: gpcrMAX PathHunter beta-arrestin
[24] = target: CCR3 (Homo sapiens, UniProt P51677); experiment: gpcrMAX PathHunter beta-arrestin
Chain of CCR3 (P51677 whole entry): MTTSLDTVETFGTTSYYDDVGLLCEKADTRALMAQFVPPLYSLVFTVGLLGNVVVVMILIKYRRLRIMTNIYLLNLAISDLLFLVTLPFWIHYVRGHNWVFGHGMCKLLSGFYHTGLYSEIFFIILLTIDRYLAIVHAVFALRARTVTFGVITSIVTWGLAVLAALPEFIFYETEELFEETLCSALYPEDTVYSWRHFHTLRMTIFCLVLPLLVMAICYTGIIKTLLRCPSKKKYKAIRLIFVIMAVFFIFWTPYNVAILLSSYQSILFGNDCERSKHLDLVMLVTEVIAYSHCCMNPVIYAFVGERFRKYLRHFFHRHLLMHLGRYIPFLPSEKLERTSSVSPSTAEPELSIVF

[25] = tested on: OV:SK-OV-3; set-up: method as in earlier work; conditions: NCI-60 panel; ref [4],[5],[6],[7]; cited from earlier work
[26] = target: OPRD1 (Homo sapiens, UniProt P41143); experiment: gpcrMAX PathHunter beta-arrestin
Chain of OPRD1 (P41143 whole entry): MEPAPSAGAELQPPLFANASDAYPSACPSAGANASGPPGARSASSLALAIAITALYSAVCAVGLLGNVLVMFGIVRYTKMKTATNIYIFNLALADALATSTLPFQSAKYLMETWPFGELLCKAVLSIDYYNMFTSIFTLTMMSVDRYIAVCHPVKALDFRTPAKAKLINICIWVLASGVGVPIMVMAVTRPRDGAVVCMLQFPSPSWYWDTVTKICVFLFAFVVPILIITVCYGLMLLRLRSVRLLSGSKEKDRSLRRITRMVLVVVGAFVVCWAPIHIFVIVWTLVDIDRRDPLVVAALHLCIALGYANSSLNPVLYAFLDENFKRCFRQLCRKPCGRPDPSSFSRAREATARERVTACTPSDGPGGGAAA

[27] = tested on: BR:T-47D; set-up: method as in earlier work; conditions: NCI-60 panel; ref [4],[5],[6],[7]; cited from earlier work
[28] = target: MCHR2 (Homo sapiens, UniProt Q969V1); experiment: gpcrMAX PathHunter beta-arrestin
[29] = tested on: BR:MDA-MB-231; set-up: method as in earlier work; conditions: NCI-60 panel; ref [4],[5],[6],[7]; cited from earlier work
[30] = target: DRD2L (Homo sapiens, UniProt P14416); experiment: gpcrMAX PathHunter beta-arrestin
[31] = target: PTGER4 (Homo sapiens, UniProt P35408); experiment: gpcrMAX PathHunter beta-arrestin
[32] = target: EDG3 (Homo sapiens, UniProt Q99500); experiment: gpcrMAX PathHunter beta-arrestin
[33] = target: GPR119 (Homo sapiens, UniProt Q8TDV5); experiment: gpcrMAX PathHunter beta-arrestin
[34] = tested on: CO:HCC-2998; set-up: method as in earlier work; conditions: NCI-60 panel; ref [4],[5],[6],[7]; cited from earlier work
[35] = target: EDNRB (Homo sapiens, UniProt P24530); experiment: gpcrMAX PathHunter beta-arrestin
[36] = tested on: BR:BT-549; set-up: method as in earlier work; conditions: NCI-60 panel; ref [4],[5],[6],[7]; cited from earlier work
[37] = target: FPRL1 (Homo sapiens, UniProt P25090); experiment: gpcrMAX PathHunter beta-arrestin
Chain of FPRL1 (P25090 whole entry): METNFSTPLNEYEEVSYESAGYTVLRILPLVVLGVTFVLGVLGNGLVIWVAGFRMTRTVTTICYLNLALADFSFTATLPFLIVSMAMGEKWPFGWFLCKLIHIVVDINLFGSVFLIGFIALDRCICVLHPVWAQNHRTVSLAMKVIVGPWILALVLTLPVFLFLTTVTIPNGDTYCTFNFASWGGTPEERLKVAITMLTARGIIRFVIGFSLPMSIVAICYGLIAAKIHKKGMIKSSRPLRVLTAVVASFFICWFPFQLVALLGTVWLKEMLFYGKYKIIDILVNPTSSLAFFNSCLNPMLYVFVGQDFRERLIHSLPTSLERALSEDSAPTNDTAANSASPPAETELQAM

[38] = target: DRD2S (Homo sapiens, UniProt P14416); experiment: gpcrMAX PathHunter beta-arrestin
[39] = tested on: CNS:U251; set-up: method as in earlier work; conditions: NCI-60 panel; ref [4],[5],[6],[7]; cited from earlier work
[40] = target: PTGIR (Homo sapiens, UniProt P43119); experiment: gpcrMAX PathHunter beta-arrestin
[41] = target: CCKBR (Homo sapiens, UniProt P32239); experiment: gpcrMAX PathHunter beta-arrestin

Chain of CNR2 (P34972 whole entry): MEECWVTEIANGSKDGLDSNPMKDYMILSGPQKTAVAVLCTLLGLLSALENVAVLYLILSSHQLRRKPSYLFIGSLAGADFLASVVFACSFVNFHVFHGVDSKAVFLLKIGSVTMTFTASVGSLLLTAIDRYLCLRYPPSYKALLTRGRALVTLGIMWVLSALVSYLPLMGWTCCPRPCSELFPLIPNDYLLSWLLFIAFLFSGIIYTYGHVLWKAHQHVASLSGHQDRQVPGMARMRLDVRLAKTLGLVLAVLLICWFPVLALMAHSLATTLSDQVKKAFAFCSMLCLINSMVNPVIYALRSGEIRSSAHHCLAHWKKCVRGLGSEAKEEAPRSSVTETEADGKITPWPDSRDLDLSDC
Chain of F2RL3 (Q96RI0 18-385): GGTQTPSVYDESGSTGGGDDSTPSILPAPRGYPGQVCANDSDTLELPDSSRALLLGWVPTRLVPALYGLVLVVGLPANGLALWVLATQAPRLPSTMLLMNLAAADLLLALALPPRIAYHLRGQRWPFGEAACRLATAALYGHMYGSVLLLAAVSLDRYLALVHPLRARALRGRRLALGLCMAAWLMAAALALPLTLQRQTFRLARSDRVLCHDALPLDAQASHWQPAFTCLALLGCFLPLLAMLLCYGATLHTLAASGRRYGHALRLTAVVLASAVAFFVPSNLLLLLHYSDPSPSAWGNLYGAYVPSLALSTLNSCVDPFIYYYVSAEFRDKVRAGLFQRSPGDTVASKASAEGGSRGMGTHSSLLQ

Cc1c(Cl)cccc1NC(=O)c1sc2nc3c(cc2c1N)C(=O)CCC3 [Compound 1]
GI50 [1]: 0.0713 µM
inhibition at 10 µM [2]: 16%
inhibition at 10 µM [3]: 9%
inhibition at 10 µM [4]: -18%
inhibition at 10 µM [5]: -6%
inhibition at 10 µM [6]: -59%
GI50 [7]: 0.0731 µM
inhibition at 10 µM [8]: 12%
inhibition at 10 µM [9]: 7%
inhibition at 10 µM [10]: -15%
inhibition at 10 µM [11]: 13%
inhibition at 10 µM [12]: -49%
inhibition at 10 µM [13]: -8%
inhibition at 10 µM [14]: -21%
GI50 [15]: 0.279 µM
inhibition at 10 µM [16]: -10%
GI50 [17]: 0.0418 µM
inhibition at 10 µM [18]: 24%
GI50 [19]: 0.0837 µM
inhibition at 10 µM [20]: 17%
inhibition at 10 µM [21]: 20%
inhibition at 10 µM [22]: 6%
inhibition at 10 µM [23]: 2%
inhibition at 10 µM [24]: -47%
GI50 [25]: 0.0606 µM
inhibition at 10 µM [26]: -26%
GI50 [27]: 0.055 µM
inhibition at 10 µM [28]: -7%
GI50 [29]: 0.141 µM
inhibition at 10 µM [30]: -1%
inhibition at 10 µM [31]: 7%
inhibition at 10 µM [32]: -2%
inhibition at 10 µM [33]: 23%
GI50 [34]: 0.213 µM
inhibition at 10 µM [35]: 0%
GI50 [36]: 0.321 µM
inhibition at 10 µM [37]: 11%
inhibition at 10 µM [38]: -6%
GI50 [39]: 0.0962 µM
inhibition at 10 µM [40]: 8%
inhibition at 10 µM [41]: 12%
